Assay results: patent US20250170218A1, “STABLE PHARMACEUTICAL COMPOSITION OF RECEPTOR AGONIST, AND PREPARATION METHOD AND APPLICATION THEREOF” (JIANGSU HANSOH PHARMACEUTICAL GROUP CO., LTD., priority 2022, published 2025)
Read-outs that look alike come from different tables or passages of the source. Numbered stars: 1 amine (or outer) side, 2 acyl side, 3 side chain; on linkers, the order of the positions; unused ones are H or OH. Square brackets hold non-standard residues; d marks the D form. Side chains are listed from the residue outwards. Peptide text beside a SMILES is read from it. * marks the point of attachment. ξ: configuration not given here. C20 diacid = O=C(O)CCCCCCCCCCCCCCCCCCC(=O)*; γGlu = O=C(O)[C@H](CCC(=O)[*:2])N[*:1]; AEEA = NCCOCCOCC(=O)O; Aib = CC(C)(N)C(=O)O; ξP = O=C(O)C1CCCN1

Legend:
[1] = acids, alkalis, oxidation or high temperature
[2] = Pharmacokinetic study in cynomolgus monkeys after single subcutaneous or intravenous injection; type: in vivo
Method: The administration doses for 4 groups, i.e., intravenous injection group, low-dose subcutaneous injection group, medium-dose subcutaneous group and high-dose subcutaneous injection group, were 0.1, 0.03, 0.1, and 0.3 mg/kg, respectively, all by single administration.

[3] = Influencing factor test of the bulk drug; type: physicochemical; conditions: high temperature or illumination

**Q.** Which “degradation in stressing test” value [1] does the source give for `CC[C@H](C)[C@H](NC(=O)[C@H](CCCCN)NC(=O)[C@H](CCC(=O)O)NC(=O)[C@H](CC(C)C)NC(=O)[C@H](Cc1ccc(O)cc1)NC(=O)[C@@H](NC(=O)[C@H](CO)NC(=O)[C@H](Cc1ccc(O)cc1)NC(=O)[C@H](CC(=O)O)NC(=O)[C@H](CO)NC(=O)[C@@H](NC(=O)[C@H](Cc1ccccc1)NC(=O)[C@@H](NC(=O)CNC(=O)[C@H](CCC(=O)O)NC(=O)C(C)(C)NC(=O)[C@@H](N)Cc1ccc(O)cc1)[C@@H](C)O)[C@@H](C)O)[C@@H](C)CC)C(=O)N[C@@H](C)C(=O)N[C@@H](C)C(=O)N[C@@H](CCC(N)=O)C(=O)N[C@@H](CCC(=O)O)C(=O)N[C@@H](Cc1ccccc1)C(=O)N[C@H](C(=O)N[C@@H](CC(N)=O)C(=O)N[C@@H](Cc1c[nH]c2ccccc12)C(=O)N[C@@H](CC(C)C)C(=O)N[C@@H](CC(C)C)C(=O)N[C@@H](C)C(=O)NCC(=O)NCC(=O)N1CCCC1C(=O)N[C@@H](CO)C(=O)N[C@@H](CO)C(=O)NCC(=O)N[C@@H](C)C(=O)N1CCC[C@H]1C(=O)N1CCCC1C(=O)N1CCC[C@H]1C(=O)N[C@@H](CO)C(=O)N[C@@H](CCCCNC(=O)COCCOCCNC(=O)COCCOCCNC(=O)CC[C@H](NC(=O)CCCCCCCCCCCCCCCCCCC(=O)O)C(=O)O)C(N)=O)C(C)C` (some centres unmarked) [Active ingredient] (H-Y[Aib]EGTFTSDYSIYLEKIAAQEFVNWLLAGG[ξP]SSGAP[ξP]PSK([AEEA-AEEA-γGlu-C20 diacid])-NH2) here?
**A.** significant degradations

**Q.** What about the “exposure (AUClast) in animals of different sexes” value [2] of the same compound?
**A.** no statistical difference

**Q.** What about the Vd ([2]; cynomolgus monkey, in vivo, intravenous, 0.1 mg/kg, single, read-out: apparent volume of distribution Vd) of the same compound?
**A.** 0.066 to 0.0681 L/kg

**Q.** What about the clearance ([2]; cynomolgus monkey, in vivo, intravenous, 0.1 mg/kg, single, read-out: clearance CL) of the same compound?
**A.** 21.4 to 22.3 mL/day/kg

**Q.** What about the half-life ([2]; cynomolgus monkey, in vivo, intravenous, 0.1 mg/kg, single, read-out: elimination half-life t1/2) of the same compound?
**A.** 50.7 to 51.5 h

**Q.** What about the half-life ([2]; cynomolgus monkey, in vivo, sc, single subcutaneous injection, read-out: elimination half-life T1/2) of the same compound?
**A.** 48.9 to 65.4 h

**Q.** What about the Tmax ([2]; cynomolgus monkey, in vivo, sc, single subcutaneous injection, read-out: time to peak drug concentration Tmax) of the same compound?
**A.** 13.3 to 18 h

**Q.** And the “polymer in influencing factor test” value [3]?
**A.** polymer growth
